Data from the NIST ThermoML archive (doi:10.1021/je0604232).
± gives the expanded uncertainty stated by the source.

Experiment: molar heat capacity at constant pressure
Settings: Liquid

Row | Compound | molar heat capacity at constant pressure (303.15 K, 101 kPa) [J/K/mol] | molar heat capacity at constant pressure (308.15 K, 101 kPa) [J/K/mol] | molar heat capacity at constant pressure (313.15 K, 101 kPa) [J/K/mol] | molar heat capacity at constant pressure (318.15 K, 101 kPa) [J/K/mol] | molar heat capacity at constant pressure (323.15 K, 101 kPa) [J/K/mol] | molar heat capacity at constant pressure (328.15 K, 101 kPa) [J/K/mol] | molar heat capacity at constant pressure (333.15 K, 101 kPa) [J/K/mol] | molar heat capacity at constant pressure (338.15 K, 101 kPa) [J/K/mol] | molar heat capacity at constant pressure (343.15 K, 101 kPa) [J/K/mol] | molar heat capacity at constant pressure (348.15 K, 101 kPa) [J/K/mol] | molar heat capacity at constant pressure (353.15 K, 101 kPa) [J/K/mol] | other results
1 | NCCO [2-aminoethan-1-ol] | – | – | – | – | – | – | – | – | – | – | – | molar heat capacity at constant pressure (303.15 K, 101.33 kPa): 168 ± 1 J/K/mol; molar heat capacity at constant pressure (308.15 K, 101.33 kPa): 169 ± 1 J/K/mol; molar heat capacity at constant pressure (313.15 K, 101.33 kPa): 169 ± 1 J/K/mol; molar heat capacity at constant pressure (318.15 K, 101.33 kPa): 171 ± 2 J/K/mol; molar heat capacity at constant pressure (323.15 K, 101.33 kPa): 173 ± 2 J/K/mol; molar heat capacity at constant pressure (328.15 K, 101.33 kPa): 174 ± 2 J/K/mol; molar heat capacity at constant pressure (333.15 K, 101.33 kPa): 175 ± 2 J/K/mol; molar heat capacity at constant pressure (338.15 K, 101.33 kPa): 178 ± 2 J/K/mol; molar heat capacity at constant pressure (343.15 K, 101.33 kPa): 179 ± 2 J/K/mol; molar heat capacity at constant pressure (348.15 K, 101.33 kPa): 180 ± 2 J/K/mol; molar heat capacity at constant pressure (353.15 K, 101.33 kPa): 182 ± 2 J/K/mol
2 | NCCCO [3-amino-1-propanol] | 204 ± 2 | 207 ± 2 | 208 ± 2 | 208 ± 2 | 209 ± 2 | 210 ± 2 | 211 ± 2 | 213 ± 2 | 214 ± 2 | 216 ± 2 | 217 ± 2 | –
3 | NCCNCCO [N-(2-aminoethyl)ethanolamine] | 279 ± 2 | 284 ± 2 | 285 ± 2 | 286 ± 2 | 287 ± 2 | 289 ± 2 | 290 ± 2 | 292 ± 2 | 293 ± 2 | 295 ± 2 | 296 ± 2 | –
4 | CN(C)CCO [2-(N,N-dimethylamino)ethanol] | 213 ± 2 | 215 ± 2 | 217 ± 2 | 219 ± 2 | 221 ± 2 | 222 ± 2 | 223 ± 2 | 223 ± 2 | 223 ± 2 | 224 ± 2 | 226 ± 2 | –
5 | CC(O)CN (configuration not stated) [1-amino-2-propanol] | 209 ± 2 | 213 ± 2 | 214 ± 2 | 215 ± 2 | 217 ± 2 | 218 ± 2 | 221 ± 2 | 223 ± 2 | 225 ± 2 | 228 ± 2 | 230 ± 2 | –
6 | CN(CCO)CCO [N-methyldiethanolamine] | – | – | – | – | – | – | – | – | – | – | – | molar heat capacity at constant pressure (303.15 K, 101.33 kPa): 273 ± 2 J/K/mol; molar heat capacity at constant pressure (308.15 K, 101.33 kPa): 276 ± 2 J/K/mol; molar heat capacity at constant pressure (313.15 K, 101.33 kPa): 279 ± 2 J/K/mol; molar heat capacity at constant pressure (318.15 K, 101.33 kPa): 282 ± 2 J/K/mol; molar heat capacity at constant pressure (323.15 K, 101.33 kPa): 285 ± 2 J/K/mol; molar heat capacity at constant pressure (328.15 K, 101.33 kPa): 288 ± 2 J/K/mol; molar heat capacity at constant pressure (333.15 K, 101.33 kPa): 290 ± 2 J/K/mol; molar heat capacity at constant pressure (338.15 K, 101.33 kPa): 294 ± 2 J/K/mol; molar heat capacity at constant pressure (343.15 K, 101.33 kPa): 298 ± 2 J/K/mol; molar heat capacity at constant pressure (348.15 K, 101.33 kPa): 301 ± 3 J/K/mol; molar heat capacity at constant pressure (353.15 K, 101.33 kPa): 304 ± 3 J/K/mol
7 | CNCCO [2-(methylamino)ethanol] | 194 ± 2 | 199 ± 2 | 200 ± 2 | 202 ± 2 | 203 ± 2 | 205 ± 2 | 206 ± 2 | 207 ± 2 | 208 ± 2 | 210 ± 2 | 212 ± 2 | –
